Where a name gives a salt, the structure may show the parent alone. Some results are limits rather than exact numbers.

For the first experiment, the system named is MOLM-13 cells. The experiment is described as follows: MOLM13 CTG - analysis of cell proliferation (Cell Titre Glo). It counts as cell-based. To be noted: Homo sapiens, geometric mean, read-out: CTG MOLM13 cells IC50 GEOMEAN.
As usually defined, the IC50 is the midpoint of a concentration-inhibition curve. For the molecule `O=C1CC(c2ccc3nc(CNC(=O)c4cc(=O)n5ccccc5n4)cn3c2)NC(C2CCCCC2)C1` (mixture of isomers) [Example 334, N-[[6-(6-cyclohexyl-4-oxo-2-piperidyl)imidazo[1,2-a]pyridin-2-yl]methyl]-4-oxo-pyrido[1,2-a]pyrimidine-2-carboxamide], the IC50 was 17900 nM.
As for `O=C(NCc1cn2cc(CNCC3CCCCC3)ccc2n1)c1cc(=O)n2ccccc2n1` [Compound 72, N-[(6-{[(cyclohexyl-methyl)amino]methyl}imidazo [1,2-a]pyridin-2-yl)methyl]-4-oxo-4H-pyrido [1,2-a]pyrimidine-2-carboxamide], the IC50 was found to be 8700 nM.
Turning to `CN(Cc1ccccc1)Cc1ccc2nc(CNC(=O)c3cc(=O)n4ccccc4n3)cn2c1` [Compound 74, N-[(6-{[benzyl (methyl)amino]methyl}imidazo [1,2-a]pyridin-2-yl)methyl]-4-oxo-4H-pyrido [1,2-a]pyrimidine-2-carboxamide], the IC50 is not below 30000 nM.

In the next experiment the target is T1, METTL3/14 (Homo sapiens, UniProt Q86U44).
T1 construct: The enzyme used was full-length his-tagged METTL3; His; made in house
T1 sequence (Q86U44 whole entry): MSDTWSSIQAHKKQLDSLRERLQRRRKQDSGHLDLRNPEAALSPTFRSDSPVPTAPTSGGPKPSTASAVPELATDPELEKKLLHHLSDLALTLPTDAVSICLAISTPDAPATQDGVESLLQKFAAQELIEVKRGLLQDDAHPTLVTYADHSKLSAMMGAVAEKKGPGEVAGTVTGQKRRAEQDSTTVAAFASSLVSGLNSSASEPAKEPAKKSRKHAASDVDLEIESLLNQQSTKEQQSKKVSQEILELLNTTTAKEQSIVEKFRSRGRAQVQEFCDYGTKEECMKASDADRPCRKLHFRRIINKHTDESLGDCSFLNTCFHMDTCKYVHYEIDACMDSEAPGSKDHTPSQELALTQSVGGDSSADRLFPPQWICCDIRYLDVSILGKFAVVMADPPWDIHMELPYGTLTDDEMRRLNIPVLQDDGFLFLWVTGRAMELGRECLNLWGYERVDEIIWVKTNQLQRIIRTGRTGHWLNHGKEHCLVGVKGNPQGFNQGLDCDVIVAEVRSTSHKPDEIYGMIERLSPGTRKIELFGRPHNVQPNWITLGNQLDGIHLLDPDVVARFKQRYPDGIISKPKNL
T1 sequence (Q9HCE5 whole entry partner): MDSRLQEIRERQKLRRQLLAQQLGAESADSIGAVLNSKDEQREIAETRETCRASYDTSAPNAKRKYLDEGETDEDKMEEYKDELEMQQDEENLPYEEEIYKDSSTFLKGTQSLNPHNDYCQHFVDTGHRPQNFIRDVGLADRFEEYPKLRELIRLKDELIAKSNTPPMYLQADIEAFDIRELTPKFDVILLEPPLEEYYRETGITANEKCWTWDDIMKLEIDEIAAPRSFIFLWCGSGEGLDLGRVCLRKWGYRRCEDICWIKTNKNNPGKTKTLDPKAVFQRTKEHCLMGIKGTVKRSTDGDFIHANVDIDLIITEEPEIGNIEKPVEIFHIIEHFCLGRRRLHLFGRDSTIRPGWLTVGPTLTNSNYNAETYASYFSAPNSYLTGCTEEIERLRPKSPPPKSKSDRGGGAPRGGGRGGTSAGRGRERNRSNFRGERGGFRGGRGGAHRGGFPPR
In words: METTL3/14 methyltransferase assay (METTL3_14 RFMS, RapidFire mass spectrometry).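 Note: recombinant His-tagged METTL3 with FLAG-tagged METTL14 from baculovirus, SAH product quantified by mass spectrometry against isotope-labelled internal standards, 60 min at room temperature, scaled between no-RNA and DMSO-only wells.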 It counts as biochemical. To be noted: 5 nM METTL3/14, 0.2 μM RNA substrate, 0.5 μM SAM; lower limit of the assay IC50=5 nM; Compounds 1-62; read-out: METTL3_14 RFMS IC50.
Regarding `O=Cc1ccc2nc(CNC(=O)c3cc(=O)n4ccccc4n3)cn2c1` [Example 49, N-[(6-formylimidazo[1,2-a]pyridin-2-yl)methyl]-4-oxo-pyrido[1,2-a]pyrimidine-2-carboxamide], the IC50 amounted to 1040 nM.

The experiment is the same for the next values; noted with them: 5 nM METTL3/14, 0.2 μM RNA substrate, 0.5 μM SAM; lower limit of the assay IC50=5 nM; Compounds 63-265; read-out: METTL3_14 RFMS IC50.
For `CN(Cc1ccccc1)Cc1ccc2nc(CNC(=O)c3cc(=O)n4ccccc4n3)cn2c1` [Compound 74, N-[(6-{[benzyl (methyl)amino]methyl}imidazo [1,2-a]pyridin-2-yl)methyl]-4-oxo-4H-pyrido [1,2-a]pyrimidine-2-carboxamide], the IC50 stood at 122 nM.
For the molecule `CC1(C)CCN(Cc2ccc3nc(Cn4cc(-c5cc(Br)cc6[nH]ncc56)nn4)cn3c2)CC1` [Example 227, 6-bromo-4-[1-({6-[(4,4-dimethylpiperidin-1-yl)methyl]imidazo[1,2-a]pyridin-2-yl}methyl)-1H-1,2,3-triazol-4-yl]-1H-indazole], the IC50 is 7.9 nM.
With `CC(C)(C)[C@H]1COC[C@@H](c2ccc3nc(CNC(=O)c4cc(=O)n5ccccc5n4)cn3c2)N1` [Example 228, N-({6-[(3R,5S)-5-tert-butylmorpholin-3-yl]imidazo[1,2-a]pyridin-2-yl}methyl)-4-oxo-4H-pyrido[1,2-a]pyrimidine-2-carboxamide], the concentration for half-maximal inhibition (IC50) was determined as 239 nM.
On to `CC(C)(C)[C@@H]1COC[C@H](c2ccc3nc(CNC(=O)c4cc(=O)n5ccccc5n4)cn3c2)N1` [Example 229, N-({6-[(3S,5R)-5-tert-butylmorpholin-3-yl]imidazo[1,2-a]pyridin-2-yl}methyl)-4-oxo-4H-pyrido[1,2-a]pyrimidine-2-carboxamide], for which the half-maximal inhibitory concentration (IC50) was determined as 100 nM.
`O=C(NCc1cn2cc([C@H]3COC[C@@H](C4CCCCC4)N3)ccc2n1)c1cc(=O)n2ccccc2n1` [Example 230, N-({6-[(3S,5R)-5-cyclohexylmorpholin-3-yl]imidazo[1,2-a]pyridin-2-yl}methyl)-4-oxo-4H-pyrido[1,2-a]pyrimidine-2-carboxamide]: the IC50 came out at 81.3 nM.
`CC(C)(C)CN1CCOCC1c1ccc2nc(CNC(=O)c3cc(=O)n4ccccc4n3)cn2c1` (stereo not shown) [Example 232, N-({6-[4-(2,2-dimethylpropyl)morpholin-3-yl]imidazo[1,2-a]pyridin-2-yl}methyl)-4-oxo-4H-pyrido[1,2-a]pyrimidine-2-carboxamide]: the IC50 came to 8370 nM.
For `C[C@@H]1COC[C@H](c2ccc3nc(CNC(=O)c4cc(=O)n5ccccc5n4)cn3c2)N1` [Example 233, N-({6-[(3S,5R)-5-methylmorpholin-3-yl]imidazo[1,2-a]pyridin-2-yl}methyl)-4-oxo-4H-pyrido[1,2-a]pyrimidine-2-carboxamide], the IC50 amounted to 1390 nM.
Turning to `COc1cccc2c1OCC(c1ccc3nc(CNC(=O)c4cc(=O)n5ccccc5n4)cn3c1)NC2` (stereo not shown) [Example 234, N-{[6-(9-methoxy-2,3,4,5-tetrahydro-1,4-benzoxazepin-3-yl)imidazo[1,2-a]pyridin-2-yl]methyl}-4-oxo-4H-pyrido[1,2-a]pyrimidine-2-carboxamide], the half-inhibitory concentration (IC50) is 3440 nM.
On the same count and under the same terms, the figure for `O=C(NCC1CCCCC1)c1ccc2nc(Cn3cc(-c4cccc5[nH]ncc45)nn3)cn2c1` [Example 249, N-(cyclohexylmethyl)-2-{[4-(1H-indazol-4-yl)-1H-1,2,3-triazol-1-yl]methyl}imidazo[1,2-a]pyridine-6-carboxamide] is 229 nM.
In the case of `CC(C)(C)CNCc1ccc2nc(Cn3cc(-c4cncc5[nH]ncc45)nn3)cn2c1` [Example 256, (2,2-dimethylpropyl)({2-[(4-{1H-pyrazolo[3,4-c]pyridin-4-yl}-1H-1,2,3-triazol-1-yl)methyl]imidazo[1,2-a]pyridin-6-yl}methyl)amine], the IC50 is 246 nM.
For the molecule `OCc1ccc2nc(Cn3cc(-c4cncc5[nH]ncc45)nn3)cn2c1` [Example 257, {2-[(4-{1H-pyrazolo[3,4-c]pyridin-4-yl}-1H-1,2,3-triazol-1-yl)methyl]imidazo[1,2-a]pyridin-6-yl}methanol], the IC50 was 4440 nM.
For `O=C(NCc1cn2cc([C@H]3COC[C@@H](C4CCCCC4)N3)ccc2n1)c1cc(=O)c2ccccc2o1` [Example 264, N-({6-[(3S,5R)-5-cyclohexylmorpholin-3-yl]imidazo[1,2-a]pyridin-2-yl}methyl)-4-oxo-4H-chromene-2-carboxamide], the half-inhibitory concentration (IC50) was found to be 195 nM.

The experiment is the same for the next values; noted with them: 5 nM METTL3/14, 0.2 μM RNA substrate, 0.5 μM SAM; lower limit of the assay IC50=5 nM; Compounds 266-351; read-out: METTL3_14 RFMS IC50.
Consider `O=C1CC(c2ccc3nc(CNC(=O)c4cc(=O)n5ccccc5n4)cn3c2)NC(C2CCCCC2)C1` (mixture of isomers) [Example 334, N-[[6-(6-cyclohexyl-4-oxo-2-piperidyl)imidazo[1,2-a]pyridin-2-yl]methyl]-4-oxo-pyrido[1,2-a]pyrimidine-2-carboxamide], for which the IC50 was 122 nM.
Take `Cc1ccc2nc(Cn3cc(-c4cccc5[nH]nc(N)c45)nn3)cn2c1` [Example 272, 4-[1-[(6-methylimidazo[1,2-a]pyridin-2-yl)methyl]triazol-4-yl]-1H-indazol-3-amine]: the IC50 came out at 9020 nM.
Regarding `O=C(NCCO)c1cc(-c2cn(Cc3cn4cc(CNCC5CCC5)ccc4n3)nn2)c2cn[nH]c2c1` [Example 301], the half-inhibitory concentration (IC50) is 233 nM.
Consider `CC(C)(C)CNCc1ccc2nc(Cn3cc(-c4cc(Cl)cc5[nH]ncc45)nn3)cn2c1` [Example 304, N-[[2-[[4-(6-chloro-1H-indazol-4-yl)triazol-1-yl]methyl]imidazo[1,2-a]pyridin-6-yl]methyl]-2,2-dimethyl-propan-1-amine], for which the concentration for half-maximal inhibition (IC50) was 6.1 nM.
Take `NC1(CNCc2ccc3nc(Cn4cc(-c5ccc(F)c6[nH]ncc56)nn4)cn3c2)CCCC1` [Example 309, 1-[[[2-[[4-(7-fluoro-1H-indazol-4-yl)triazol-1-yl]methyl]imidazo[1,2-a]pyridin-6-yl]methylamino]methyl]cyclopentanamine]: the 50% inhibitory concentration (IC50) turned out to be 120 nM.
As to `CC1(C)CCN(Cc2ccc3nc(CNC(=O)c4cc(=O)c5c(F)cccc5o4)cn3c2)CC1` [Example 310, N-[[6-[(4,4-dimethyl-1-piperidyl)methyl]imidazo[1,2-a]pyridin-2-yl]methyl]-5-fluoro-4-oxo-chromene-2-carboxamide], the concentration for half-maximal inhibition (IC50) stood at 186 nM.
`CC1(C)CCN(Cc2ccc3nc(CNC(=O)c4cc(OCCOCCN)cc5[nH]ncc45)cn3c2)CC1` [Example 312, 6-[2-(2-aminoethoxy)ethoxy]-N-[[6-[(4,4-dimethyl-1-piperidyl)methyl]imidazo[1,2-a]pyridin-2-yl]methyl]-1H-indazole-4-carboxamide trihydrochloride]: the IC50 was determined as 52.1 nM.
Still for that read-out and setting: the figure for `OCc1ccc2nc(Cn3cc(-c4cc(F)cc5[nH]ncc45)nn3)cn2c1` [Example 317, [2-[[4-(6-fluoro-1H-indazol-4-yl)triazol-1-yl]methyl]imidazo[1,2-a]pyridin-6-yl]methanol] is 462 nM; for `CC(C)(C)CNCc1ccc2nc(Cn3cc(-c4cc(C5CC5)cc5[nH]ncc45)nn3)cn2c1` [Example 321, N-[[2-[[4-(6-cyclopropyl-1H-indazol-4-yl)triazol-1-yl]methyl]imidazo[1,2-a]pyridin-6-yl]methyl]-2,2-dimethyl-propan-1-amine] it is 13.2 nM.
As for `Cc1ccc2nc(Cn3cnc(-c4cccc5[nH]ncc45)c3)cn2c1` [Example 329, 2-[[4-(1H-indazol-4-yl)imidazol-1-yl]methyl]-6-methyl-imidazo[1,2-a]pyridine formate], the IC50 came to 1640 nM.
As to `CC1CNC(c2ccc3nc(CNC(=O)c4cc(=O)n5ccccc5n4)cn3c2)CO1` (stereo not shown) [Example 331], the IC50 came to 3440 nM.
Consider `COc1cc(Br)cc2c1OCC(c1ccc3nc(CNC(=O)c4cc(=O)n5ccccc5n4)cn3c1)NC2` (stereo not shown) [Example 332], for which the IC50 is 1700 nM.
As to `O=C(NCc1cn2cc(C3CNCCN3)ccc2n1)c1cc(=O)n2ccccc2n1` (stereo not shown) [Example 333, 4-oxo-N-[(6-piperazin-2-ylimidazo[1,2-a]pyridin-2-yl)methyl]pyrido[1,2-a]pyrimidine-2-carboxamide], the IC50 is 1230 nM.
Same read-out and setting: the figure for `Cc1ccc2nc(C(C)(O)c3cnc(-c4cccc5[nH]ncc45)s3)cn2c1` (stereo not shown) [Example 335, 1-[2-(1H-indazol-4-yl)thiazol-5-yl]-1-(6-methylimidazo[1,2-a]pyridin-2-yl)ethanol] is 7290 nM; for `c1cc(-n2cc(Cc3cn4ccccc4n3)nn2)c2cn[nH]c2c1` [Example 336, 4-(4-(imidazo[1,2-a]pyridin-2-ylmethyl)-1H-1,2,3-triazol-1-yl)-1H-indazole] it is 4160 nM; for `CC(=O)N(Cc1ccc2nc(CNC(=O)c3cc(=O)n4ccccc4n3)cn2c1)CC1CCC1` [Example 340, N-[(6-{[N-(cyclobutylmethyl)acetamido]methyl}imidazo[1,2-a]pyridin-2-yl)methyl]-4-oxo-4H-pyrido[1,2-a]pyrimidine-2-carboxamide] it is 6810 nM.
On the same count and under the same terms, for `c1cc(-c2ncn(Cc3cn4cc(CNCC5CCC5)ccc4n3)n2)c2cn[nH]c2c1` [Example 341, N-(cyclobutylmethyl)-1-[2-[[3-(1H-indazol-4-yl)-1,2,4-triazol-1-yl]methyl]imidazo[1,2-a]pyridin-6-yl]methanamine] the value was 64.4 nM.

The same experiment, now with this note: read-out: METTL3_14 RFMS IC50.
Turning to `O=C(NCc1cn2cc(C(Cc3ccccc3)N(CC3CCC3)CC3CCC3)ccc2n1)c1cc(=O)n2ccccc2n1` (stereo not shown) [Example 314], the IC50 was found to be 7110 nM.

(Values after patent US12358915B2, “METTL3 inhibitory compounds” (STORM THERAPEUTICS LTD., priority 2019, dated 2025).)
